Experimental findings from ChEMBL document CHEMBL5291721, “A preclinical secondary pharmacology resource illuminates target-adverse drug reaction associations of marketed drugs” (Nat Commun, 2023) are described below.

Among the targets are Mu-type opioid receptor (Homo sapiens, UniProt P35372); Cannabinoid receptor 1 (Homo sapiens, UniProt P21554); Estrogen receptor beta (Homo sapiens, UniProt Q92731).
The next assay concerns the target T1, Estrogen receptor (Homo sapiens, UniProt P03372).
T1 sequence (P03372 whole entry): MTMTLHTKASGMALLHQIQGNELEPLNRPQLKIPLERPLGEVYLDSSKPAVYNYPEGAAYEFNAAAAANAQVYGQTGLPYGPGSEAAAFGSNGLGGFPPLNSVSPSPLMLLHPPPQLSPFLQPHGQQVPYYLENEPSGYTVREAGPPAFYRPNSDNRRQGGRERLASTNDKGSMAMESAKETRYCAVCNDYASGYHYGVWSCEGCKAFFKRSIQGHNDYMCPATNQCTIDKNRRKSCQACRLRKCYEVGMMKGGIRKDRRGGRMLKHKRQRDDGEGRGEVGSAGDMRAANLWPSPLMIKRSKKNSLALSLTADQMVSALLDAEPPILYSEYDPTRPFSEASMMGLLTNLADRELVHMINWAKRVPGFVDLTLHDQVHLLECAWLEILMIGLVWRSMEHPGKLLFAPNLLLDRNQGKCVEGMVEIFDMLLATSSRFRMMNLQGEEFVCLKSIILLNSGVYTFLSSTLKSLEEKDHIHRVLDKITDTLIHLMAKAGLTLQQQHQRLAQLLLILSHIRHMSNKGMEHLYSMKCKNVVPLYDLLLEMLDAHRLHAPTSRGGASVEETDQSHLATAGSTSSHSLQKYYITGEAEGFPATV

In assay [1] the target is Gamma-aminobutyric acid receptor subunit alpha-1/alpha-2/beta-2/gamma-2 (Homo sapiens, UniProt P14867+P18507+P47869+P47870). The format is functional, cell-based.
For assay [2], the target named is 5-hydroxytryptamine receptor 2A (Homo sapiens, UniProt P28223). The assay is classed as functional, cell-based.
For assay [3], the target named is T2, Progesterone receptor (Homo sapiens, UniProt P06401).
T2 sequence (P06401 whole entry): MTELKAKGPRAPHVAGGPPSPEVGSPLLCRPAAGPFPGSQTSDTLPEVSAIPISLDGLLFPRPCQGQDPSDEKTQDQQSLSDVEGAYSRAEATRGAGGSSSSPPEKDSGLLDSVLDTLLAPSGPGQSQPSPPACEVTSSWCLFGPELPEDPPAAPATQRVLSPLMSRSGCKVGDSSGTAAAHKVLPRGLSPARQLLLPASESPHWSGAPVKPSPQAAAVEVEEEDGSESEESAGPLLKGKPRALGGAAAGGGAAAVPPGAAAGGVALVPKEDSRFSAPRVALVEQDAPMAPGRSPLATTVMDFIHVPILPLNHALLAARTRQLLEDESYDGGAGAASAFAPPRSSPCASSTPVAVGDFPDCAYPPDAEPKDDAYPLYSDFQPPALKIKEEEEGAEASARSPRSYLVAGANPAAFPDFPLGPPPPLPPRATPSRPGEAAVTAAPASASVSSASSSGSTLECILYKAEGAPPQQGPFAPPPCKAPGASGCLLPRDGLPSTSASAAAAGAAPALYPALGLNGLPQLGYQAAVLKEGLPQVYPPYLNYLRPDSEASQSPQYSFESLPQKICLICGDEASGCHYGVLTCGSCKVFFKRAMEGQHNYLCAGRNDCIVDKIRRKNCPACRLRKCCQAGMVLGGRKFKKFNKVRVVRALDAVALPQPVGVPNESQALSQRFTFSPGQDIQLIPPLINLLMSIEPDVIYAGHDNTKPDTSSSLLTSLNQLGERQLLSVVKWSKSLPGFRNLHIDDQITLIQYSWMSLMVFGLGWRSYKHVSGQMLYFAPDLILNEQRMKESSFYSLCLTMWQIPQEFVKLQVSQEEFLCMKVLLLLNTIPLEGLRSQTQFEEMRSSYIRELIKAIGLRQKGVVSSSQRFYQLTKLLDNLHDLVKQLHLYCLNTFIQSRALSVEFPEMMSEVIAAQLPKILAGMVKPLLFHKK
The assay is classed as functional.

Assay [4] has as its target T3, D(1A) dopamine receptor (Homo sapiens, UniProt P21728).
For assay [5], the target named is T4, 5-hydroxytryptamine receptor 1A (Homo sapiens, UniProt P08908).
T4 sequence (P08908 whole entry): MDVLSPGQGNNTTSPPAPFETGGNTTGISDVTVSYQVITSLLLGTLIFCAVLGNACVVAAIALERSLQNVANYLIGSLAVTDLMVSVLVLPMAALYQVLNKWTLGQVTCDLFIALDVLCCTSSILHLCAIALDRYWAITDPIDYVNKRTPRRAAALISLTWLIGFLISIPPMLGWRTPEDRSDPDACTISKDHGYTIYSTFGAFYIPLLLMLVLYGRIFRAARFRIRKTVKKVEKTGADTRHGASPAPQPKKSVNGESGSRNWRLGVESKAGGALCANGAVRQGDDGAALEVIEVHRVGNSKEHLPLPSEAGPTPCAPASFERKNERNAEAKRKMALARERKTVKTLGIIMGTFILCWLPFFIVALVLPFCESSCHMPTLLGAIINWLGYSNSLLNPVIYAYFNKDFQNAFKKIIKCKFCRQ

For assay [6], the target named is T5, Corticotropin-releasing factor receptor 2 (Homo sapiens, UniProt Q13324).
T5 sequence (Q13324 whole entry): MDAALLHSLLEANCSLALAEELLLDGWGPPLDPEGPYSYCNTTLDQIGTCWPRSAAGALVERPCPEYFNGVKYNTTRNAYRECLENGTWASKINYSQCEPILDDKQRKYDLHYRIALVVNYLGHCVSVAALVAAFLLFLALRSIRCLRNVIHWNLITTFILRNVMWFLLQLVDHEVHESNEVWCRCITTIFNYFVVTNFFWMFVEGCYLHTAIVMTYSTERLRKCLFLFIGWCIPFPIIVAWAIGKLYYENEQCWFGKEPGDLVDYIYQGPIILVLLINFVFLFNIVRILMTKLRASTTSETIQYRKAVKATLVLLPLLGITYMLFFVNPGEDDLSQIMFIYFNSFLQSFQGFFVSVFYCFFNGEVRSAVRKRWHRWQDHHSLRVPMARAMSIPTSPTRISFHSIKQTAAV

For assay [7], the target named is Beta-3 adrenergic receptor (Homo sapiens, UniProt P13945).
In assay [8] the target is T2, Progesterone receptor.
The target in assay [9] is Voltage-dependent N-type calcium channel subunit alpha-1B (Rattus norvegicus, UniProt Q02294). The format is functional.
Assay [10] deals with T3, D(1A) dopamine receptor. The source holds these as a separate data set.
Note: assay procedure not described here.

Beta-3 adrenergic receptor, sequence (P13945 whole entry): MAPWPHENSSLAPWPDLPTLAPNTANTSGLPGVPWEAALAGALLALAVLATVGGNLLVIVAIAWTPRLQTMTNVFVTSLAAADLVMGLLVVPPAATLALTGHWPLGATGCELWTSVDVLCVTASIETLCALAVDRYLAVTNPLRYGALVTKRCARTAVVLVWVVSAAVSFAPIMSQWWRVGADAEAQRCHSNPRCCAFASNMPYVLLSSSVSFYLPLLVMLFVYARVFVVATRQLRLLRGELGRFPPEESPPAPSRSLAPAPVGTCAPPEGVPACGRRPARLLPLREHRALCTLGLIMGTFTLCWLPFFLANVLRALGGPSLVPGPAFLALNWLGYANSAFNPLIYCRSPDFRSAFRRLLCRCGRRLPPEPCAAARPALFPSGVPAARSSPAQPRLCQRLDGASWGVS
Mu-type opioid receptor, sequence (P35372 whole entry): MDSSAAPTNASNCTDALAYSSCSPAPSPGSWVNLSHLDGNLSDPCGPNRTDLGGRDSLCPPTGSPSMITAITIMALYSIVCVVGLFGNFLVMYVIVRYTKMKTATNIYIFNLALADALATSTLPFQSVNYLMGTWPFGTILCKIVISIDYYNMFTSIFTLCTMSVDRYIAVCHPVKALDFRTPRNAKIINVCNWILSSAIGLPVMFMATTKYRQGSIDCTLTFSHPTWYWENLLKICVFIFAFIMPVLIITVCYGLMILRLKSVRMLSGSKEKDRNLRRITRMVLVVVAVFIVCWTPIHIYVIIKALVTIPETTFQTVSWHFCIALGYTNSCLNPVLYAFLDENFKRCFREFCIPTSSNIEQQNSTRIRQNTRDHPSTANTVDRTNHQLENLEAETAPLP
Voltage-dependent N-type calcium channel subunit alpha-1B, sequence (Q02294 whole entry): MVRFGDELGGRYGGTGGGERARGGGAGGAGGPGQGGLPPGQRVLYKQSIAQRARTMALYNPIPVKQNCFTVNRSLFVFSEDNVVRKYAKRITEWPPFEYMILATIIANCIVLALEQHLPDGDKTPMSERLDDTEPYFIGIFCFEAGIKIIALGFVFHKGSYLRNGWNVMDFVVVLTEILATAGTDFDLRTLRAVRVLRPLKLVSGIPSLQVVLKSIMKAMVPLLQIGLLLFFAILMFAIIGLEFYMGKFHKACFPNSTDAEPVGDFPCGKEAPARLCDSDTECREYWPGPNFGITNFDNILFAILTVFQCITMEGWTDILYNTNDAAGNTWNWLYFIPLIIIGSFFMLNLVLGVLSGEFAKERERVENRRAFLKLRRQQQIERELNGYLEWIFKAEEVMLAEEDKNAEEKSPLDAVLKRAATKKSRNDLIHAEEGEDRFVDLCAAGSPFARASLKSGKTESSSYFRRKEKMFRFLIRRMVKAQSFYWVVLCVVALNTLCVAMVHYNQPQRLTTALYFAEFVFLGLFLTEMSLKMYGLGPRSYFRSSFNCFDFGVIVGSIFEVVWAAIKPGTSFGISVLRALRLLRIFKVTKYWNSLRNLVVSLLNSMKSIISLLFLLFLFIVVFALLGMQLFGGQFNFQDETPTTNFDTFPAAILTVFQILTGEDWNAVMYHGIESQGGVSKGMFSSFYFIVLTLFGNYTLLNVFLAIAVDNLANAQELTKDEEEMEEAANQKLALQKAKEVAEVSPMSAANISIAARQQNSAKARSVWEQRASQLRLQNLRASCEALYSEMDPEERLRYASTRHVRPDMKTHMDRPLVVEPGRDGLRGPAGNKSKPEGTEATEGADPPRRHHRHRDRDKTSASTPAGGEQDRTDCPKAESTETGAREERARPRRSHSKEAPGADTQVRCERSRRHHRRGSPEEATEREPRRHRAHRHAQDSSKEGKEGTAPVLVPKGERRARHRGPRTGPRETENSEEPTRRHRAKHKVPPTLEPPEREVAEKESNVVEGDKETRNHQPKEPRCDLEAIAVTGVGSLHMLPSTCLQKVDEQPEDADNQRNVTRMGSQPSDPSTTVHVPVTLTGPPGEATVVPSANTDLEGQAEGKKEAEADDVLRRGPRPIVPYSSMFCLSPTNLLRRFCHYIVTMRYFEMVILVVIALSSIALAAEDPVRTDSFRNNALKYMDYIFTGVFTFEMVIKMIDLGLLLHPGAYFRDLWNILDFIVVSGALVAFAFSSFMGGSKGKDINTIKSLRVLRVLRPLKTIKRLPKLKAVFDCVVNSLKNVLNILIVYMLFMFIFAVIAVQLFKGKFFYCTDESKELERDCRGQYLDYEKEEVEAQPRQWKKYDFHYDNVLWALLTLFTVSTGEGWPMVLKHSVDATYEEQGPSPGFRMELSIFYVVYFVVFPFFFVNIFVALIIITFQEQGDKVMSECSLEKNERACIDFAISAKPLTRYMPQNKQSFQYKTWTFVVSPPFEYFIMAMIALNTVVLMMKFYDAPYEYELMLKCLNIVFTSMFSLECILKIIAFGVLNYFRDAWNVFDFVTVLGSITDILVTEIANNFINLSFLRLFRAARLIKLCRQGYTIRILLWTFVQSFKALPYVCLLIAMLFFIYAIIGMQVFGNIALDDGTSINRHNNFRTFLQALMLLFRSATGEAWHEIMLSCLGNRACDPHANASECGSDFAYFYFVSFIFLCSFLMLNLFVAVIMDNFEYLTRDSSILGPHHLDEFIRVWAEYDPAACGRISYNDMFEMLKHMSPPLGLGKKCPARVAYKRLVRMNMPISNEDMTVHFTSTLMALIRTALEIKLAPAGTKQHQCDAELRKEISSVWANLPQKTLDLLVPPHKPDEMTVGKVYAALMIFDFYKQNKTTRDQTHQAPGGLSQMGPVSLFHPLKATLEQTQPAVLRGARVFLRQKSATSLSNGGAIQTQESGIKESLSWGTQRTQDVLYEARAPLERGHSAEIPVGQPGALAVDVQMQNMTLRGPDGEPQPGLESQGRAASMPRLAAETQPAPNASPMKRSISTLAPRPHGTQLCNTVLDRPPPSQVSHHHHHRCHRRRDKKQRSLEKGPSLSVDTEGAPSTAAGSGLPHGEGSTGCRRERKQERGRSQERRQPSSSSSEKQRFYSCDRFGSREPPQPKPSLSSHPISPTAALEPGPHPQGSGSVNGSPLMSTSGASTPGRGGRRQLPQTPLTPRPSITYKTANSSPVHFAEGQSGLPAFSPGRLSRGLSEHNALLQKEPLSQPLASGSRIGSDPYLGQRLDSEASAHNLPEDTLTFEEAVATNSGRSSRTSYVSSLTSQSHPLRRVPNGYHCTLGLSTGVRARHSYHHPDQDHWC
Gamma-aminobutyric acid receptor subunit alpha-1/alpha-2/beta-2/gamma-2, sequence (P14867 whole entry): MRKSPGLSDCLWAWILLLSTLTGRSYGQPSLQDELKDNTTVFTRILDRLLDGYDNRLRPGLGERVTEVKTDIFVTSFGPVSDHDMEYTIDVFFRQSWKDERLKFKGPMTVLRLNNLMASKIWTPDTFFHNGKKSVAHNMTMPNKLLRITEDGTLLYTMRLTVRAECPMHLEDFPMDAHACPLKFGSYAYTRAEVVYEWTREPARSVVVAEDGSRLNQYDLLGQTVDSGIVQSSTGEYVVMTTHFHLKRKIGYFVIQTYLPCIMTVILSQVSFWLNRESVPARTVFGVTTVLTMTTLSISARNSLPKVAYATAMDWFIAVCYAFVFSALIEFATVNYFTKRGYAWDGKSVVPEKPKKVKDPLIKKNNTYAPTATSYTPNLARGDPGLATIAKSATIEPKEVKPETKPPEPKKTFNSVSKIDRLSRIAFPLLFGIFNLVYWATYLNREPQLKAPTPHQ
Gamma-aminobutyric acid receptor subunit alpha-1/alpha-2/beta-2/gamma-2, sequence (P47870 whole entry): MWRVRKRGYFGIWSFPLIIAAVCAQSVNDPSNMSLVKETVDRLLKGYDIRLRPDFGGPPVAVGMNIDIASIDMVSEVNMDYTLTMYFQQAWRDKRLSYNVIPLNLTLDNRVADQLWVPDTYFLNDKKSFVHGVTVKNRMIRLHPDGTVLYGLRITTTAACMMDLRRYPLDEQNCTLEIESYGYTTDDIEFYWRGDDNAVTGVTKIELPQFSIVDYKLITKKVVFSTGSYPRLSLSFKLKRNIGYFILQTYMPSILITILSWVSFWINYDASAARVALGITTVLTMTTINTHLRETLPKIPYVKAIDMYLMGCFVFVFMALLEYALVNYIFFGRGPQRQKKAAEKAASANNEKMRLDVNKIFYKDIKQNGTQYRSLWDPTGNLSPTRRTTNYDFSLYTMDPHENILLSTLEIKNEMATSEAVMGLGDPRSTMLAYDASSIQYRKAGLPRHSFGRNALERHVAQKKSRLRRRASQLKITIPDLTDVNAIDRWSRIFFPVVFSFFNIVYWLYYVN
Gamma-aminobutyric acid receptor subunit alpha-1/alpha-2/beta-2/gamma-2, sequence (P18507 whole entry): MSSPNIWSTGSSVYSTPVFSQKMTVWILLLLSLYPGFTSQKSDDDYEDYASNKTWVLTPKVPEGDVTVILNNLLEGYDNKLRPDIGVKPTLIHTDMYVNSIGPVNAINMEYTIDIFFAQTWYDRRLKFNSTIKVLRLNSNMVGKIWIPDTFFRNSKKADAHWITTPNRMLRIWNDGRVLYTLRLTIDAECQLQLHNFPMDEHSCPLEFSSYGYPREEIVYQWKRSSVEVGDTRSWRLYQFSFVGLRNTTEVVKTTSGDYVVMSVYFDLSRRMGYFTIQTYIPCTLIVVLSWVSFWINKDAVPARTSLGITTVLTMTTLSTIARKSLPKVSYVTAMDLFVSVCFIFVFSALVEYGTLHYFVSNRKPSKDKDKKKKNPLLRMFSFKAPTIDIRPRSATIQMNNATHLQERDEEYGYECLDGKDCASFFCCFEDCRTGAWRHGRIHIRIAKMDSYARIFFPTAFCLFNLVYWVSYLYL
Gamma-aminobutyric acid receptor subunit alpha-1/alpha-2/beta-2/gamma-2, sequence (P47869 whole entry): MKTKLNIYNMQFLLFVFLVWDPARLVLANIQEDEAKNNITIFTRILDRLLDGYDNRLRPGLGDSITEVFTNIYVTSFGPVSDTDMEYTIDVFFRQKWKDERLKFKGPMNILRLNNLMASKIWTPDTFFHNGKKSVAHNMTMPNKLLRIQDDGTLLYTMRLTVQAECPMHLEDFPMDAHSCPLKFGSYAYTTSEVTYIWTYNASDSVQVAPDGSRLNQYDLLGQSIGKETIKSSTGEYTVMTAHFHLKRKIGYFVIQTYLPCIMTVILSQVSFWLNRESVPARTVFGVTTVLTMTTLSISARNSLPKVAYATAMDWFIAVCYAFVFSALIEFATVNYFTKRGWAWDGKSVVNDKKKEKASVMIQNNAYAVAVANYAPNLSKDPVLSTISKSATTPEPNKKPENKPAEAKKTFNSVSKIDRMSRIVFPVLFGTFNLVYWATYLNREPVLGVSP

For the compound `CC[C@@H](C(N)=O)N1CCCC1=O`, the AC50 (at Estrogen receptor; in assay [1]; in assay [2]; on Progesterone receptor [3]) was more than 30 µM each time.

As to `CCC(CC)(CC(=O)Nc1cccc(/C=C/c2nc(C3CCC3)cs2)c1)C(=O)O`, the AC50 on Estrogen receptor and on Progesterone receptor [3] was more than 30 µM each time.

In turn, `Nc1ccncc1N` [AMIFAMPRIDINE] gave an AC50 at D(1A) dopamine receptor [4] of more than 30 µM.

With `CCCC1O[C@@H]2C[C@H]3[C@@H]4CCC5=CC(=O)C=C[C@]5(C)[C@H]4[C@@H](O)C[C@]3(C)[C@]2(C(=O)CO)O1` (stereo not given in full) [BUDESONIDE], the AC50 at Mu-type opioid receptor was more than 30 µM; at Cannabinoid receptor 1, more than 10 µM.

As to `C=CCN1C[C@H](C(=O)N(CCCN(C)C)C(=O)NCC)C[C@@H]2c3cccc4[nH]cc(c34)C[C@H]21` [CABERGOLINE], the AC50 on Estrogen receptor was more than 10 µM; in assay [1], more than 30 µM; on Mu-type opioid receptor, more than 30 µM; at Progesterone receptor [3], more than 10 µM; in [5] it was 0.073 µM.

Turning to `NC1CCN(c2c(F)cc3c(=O)c(C(=O)O)cn(C4CC4)c3c2Cl)C1` (stereo not given) [CLINAFLOXACIN], the AC50 in assay [1] is more than 300 µM.

As to `CN1CCN(C2=Nc3ccccc3Sc3ccc(Cl)cc32)CC1` [CLOTHIAPINE], the AC50 was more than 30 µM in assay [1] and 1 µM in assay [2].

For `CN(C)CCC=C1c2ccccc2C=Cc2ccccc21` [CYCLOBENZAPRINE], the AC50 at Estrogen receptor is more than 30 µM; in [6], more than 30 µM; at Mu-type opioid receptor, more than 10 µM; at Estrogen receptor beta, more than 30 µM; in assay [7] it was more than 30 µM; in [5] it was 4.94 µM. Also, the AC50 was more than 10 µM on Cannabinoid receptor 1, more than 30 µM on Progesterone receptor [8] and more than 10 µM in [9].

Take `CCOc1ccc(Cc2cc([C@@H]3O[C@H](CO)[C@@H](O)[C@H](O)[C@H]3O)ccc2Cl)cc1` [DAPAGLIFLOZIN]: the AC50 on Estrogen receptor is more than 30 µM; on D(1A) dopamine receptor [10], more than 10 µM; on Mu-type opioid receptor, more than 30 µM; in assay [7] it was more than 30 µM; in assay [5], more than 10 µM; on Cannabinoid receptor 1, more than 10 µM. Further, the values for the AC50 (on Progesterone receptor [8]; in [9]) were more than 30 µM and more than 10 µM, respectively.

In the case of `CN(C)CC/C=C1\c2ccccc2CSc2ccccc21` [DOTHIEPIN], the AC50 was more than 30 µM at Estrogen receptor and 4.8 µM in [2].

With `COc1ccc(C(=O)Nc2ccccc2CCC2CCCCN2C)cc1` (stereo not given) [ENCAINIDE], the AC50 was more than 30 µM on Estrogen receptor; more than 10 µM on D(1A) dopamine receptor [10]; more than 30 µM in assay [6]; more than 30 µM on Mu-type opioid receptor; more than 30 µM on Estrogen receptor beta; 2.2 µM in assay [2]. The AC50 was more than 30 µM in assay [7]; more than 10 µM in [5]; more than 10 µM at Cannabinoid receptor 1; more than 30 µM on Progesterone receptor [8]; more than 10 µM in assay [9].

Take `O=[N+]([O-])O[C@@H]1CO[C@H]2[C@@H]1OC[C@@H]2O` [ISOSORBIDE MONONITRATE]: the AC50 at Estrogen receptor was more than 30 µM; on D(1A) dopamine receptor [10] it was more than 10 µM; in [6], more than 30 µM; on Mu-type opioid receptor, more than 30 µM; on Estrogen receptor beta, more than 30 µM; in assay [7], more than 30 µM. The AC50 in assay [5] is more than 10 µM; at Cannabinoid receptor 1, more than 10 µM; at Progesterone receptor [8], more than 30 µM; in assay [9], more than 10 µM.

As for `COc1ccccc1N1CCN(CC(O)COc2cccc3ccccc23)CC1` (stereo not given) [NAFTOPIDIL], the AC50 at D(1A) dopamine receptor [4] was more than 30 µM; in assay [2], 9.2 µM; at Progesterone receptor [3], more than 30 µM.

Consider `COc1cc2nc(N3CCN(C(=O)c4ccco4)CC3)nc(N)c2cc1OC` [PRAZOSIN], for which the AC50 was more than 30 µM at Estrogen receptor; more than 10 µM at D(1A) dopamine receptor [10]; more than 30 µM in [6]; 4.1 µM at Mu-type opioid receptor; more than 30 µM at Estrogen receptor beta; more than 30 µM in [7]. Besides, the figures for the AC50 (at Cannabinoid receptor 1; on Progesterone receptor [8]; in assay [9]) were more than 10 µM, more than 30 µM and more than 10 µM, respectively.

Regarding `O=[N+]([O-])c1cn2c(n1)OC[C@@H](OCc1ccc(OC(F)(F)F)cc1)C2` [PRETOMANID], the AC50 at D(1A) dopamine receptor [10] was more than 10 µM; on Mu-type opioid receptor it was more than 10 µM; in [7], more than 30 µM; in [5], more than 10 µM; in [9], more than 10 µM.

`CCCCCNC(=N)N/N=C/c1c[nH]c2ccc(OC)cc12` [TEGASEROD]: the AC50 was 0.942 µM at D(1A) dopamine receptor [10]; more than 30 µM in assay [6]; 2.8 µM on Mu-type opioid receptor; more than 30 µM at Estrogen receptor beta; 1.5 µM in [2]; more than 30 µM on Progesterone receptor [3]. Further, the AC50 was 6.08 µM in [7], 0.169 µM in assay [5], 10 µM on Cannabinoid receptor 1 and more than 30 µM at Progesterone receptor [8].

As to `COC1=C(OC)C(=O)C(C/C=C(\C)CC/C=C(\C)CC/C=C(\C)CC/C=C(\C)CC/C=C(\C)CC/C=C(\C)CC/C=C(\C)CC/C=C(\C)CC/C=C(\C)CCC=C(C)C)=C(C)C1=O` [UBIDECARENONE], the AC50 in assay [1] and in assay [2] was more than 30 µM throughout.

The compound `C=CCCCCCCCCC(=O)O` [UNDECYLENIC ACID] displayed an AC50 on D(1A) dopamine receptor [4] of more than 30 µM.

`CCOc1ccccc1OCC1CNCCO1` (stereo not given) [VILOXAZINE]: the AC50 at Estrogen receptor was more than 30 µM; at D(1A) dopamine receptor [10] it was more than 10 µM; in assay [6], more than 30 µM; at Mu-type opioid receptor, more than 10 µM; on Estrogen receptor beta, more than 30 µM; in assay [7] it was more than 30 µM. The AC50 was more than 10 µM in assay [5], more than 10 µM on Cannabinoid receptor 1, more than 30 µM at Progesterone receptor [8] and more than 10 µM in assay [9].

As for `CN(C)CCc1c[nH]c2ccc(C[C@H]3COC(=O)N3)cc12` [ZOLMITRIPTAN], the AC50 (at Estrogen receptor; in [1]; on Progesterone receptor [3]) was more than 30 µM in each case.
